In patent US20160060260A1, “BROMODOMAIN INHIBITORS FOR TREATING DISEASE” (Board of Regents, The University of Texas System, priority 2014, published 2016):
pIC50: −log10 of the molar value.

target: T1, Recombinant human His-tagged Trim24-PHD-bromodomain (Homo sapiens, UniProt O15164); assay: Trim24 AlphaScreen Assay; type: binding; conditions: 5 nM Trim24 protein, 15 nM biotinylated H3K23ac (1-33aa) peptide
T1 construct: Recombinant human His-tagged Trim24-PHD-bromodomain (produced in-house); made in house
T1 sequence (O15164 824-1006 limits assumed): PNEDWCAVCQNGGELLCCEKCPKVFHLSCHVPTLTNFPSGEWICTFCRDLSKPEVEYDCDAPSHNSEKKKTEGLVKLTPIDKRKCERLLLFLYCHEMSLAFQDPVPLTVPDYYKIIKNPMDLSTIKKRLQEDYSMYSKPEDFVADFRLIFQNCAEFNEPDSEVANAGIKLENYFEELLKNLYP
How it was run: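 His-tagged Trim24-PHD-bromodomain, biotinylated H3K23ac (1-33aa) peptide and compound incubated 1 h at room temperature in 50 mM Hepes pH 7.5, 100 mM NaCl, 0.12 mM Triton X-100.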

SMILES | pIC50
CCOc1cc(OCC(C)C)cc(Oc2cc3c(cc2NS(=O)(=O)c2cn(C)cn2)n(C)c(=O)n3C)c1 [Example 225, N-(6-(3-ethoxy-5-isobutoxyphenoxy)-1,3-dimethyl-2-oxo-2,3-dihydro-1H-benzo[d]imidazol-5-yl)-1-methyl-1H-imidazole-4-sulfonamide] | 7.00 to 8.00
CCc1cc(OCC(C)C)cc(Oc2cc3c(cc2NS(=O)(=O)c2cn(C)cn2)n(C)c(=O)n3C)c1 [Example 226, N-(6-(3-ethyl-5-isobutoxyphenoxy)-1,3-dimethyl-2-oxo-2,3-dihydro-1H-benzo[d]imidazol-5-yl)-1-methyl-1H-imidazole-4-sulfonamide] | 7.00 to 8.00
COc1cc(OC)cc(S(=O)(=O)Nc2cc3c(cc2Oc2cccc(OCc4ccccc4)c2)n(C)c(=O)n3C)c1 [Example 44, N-(6-(3-(benzyloxy)phenoxy)-1,3-dimethyl-2-oxo-2,3-dihydro-1H-benzo[d]imidazol-5-yl)-3,5-dimethoxybenzenesulfonamide] | 6.00 to 7.00
Cc1nc(S(=O)(=O)Nc2cc3c(cc2Oc2cccc(OCc4ccccc4)c2)n(C)c(=O)n3C)c[nH]1 [Example 49, N-(6-(3-(benzyloxy)phenoxy)-1,3-dimethyl-2-oxo-2,3-dihydro-1H-benzo[d]imidazol-5-yl)-2-methyl-1H-imidazole-4-sulfonamide] | 6.00 to 7.00
COc1cc(OCC(C)C)cc(Oc2cc3c(cc2NS(=O)(=O)C2CC2)n(C)c(=O)n3C)c1 [Example 69, N-(6-(3-isobutoxy-5-methoxyphenoxy)-1,3-dimethyl-2-oxo-2,3-dihydro-1H-benzo[d]imidazol-5-yl)cyclopropanesulfonamide] | 7.00 to 8.00
Cc1c(S(=O)(=O)Nc2cc3c(cc2Oc2cc(OCCCCN(C)C)cc(OCC(F)(F)F)c2)n(C)c(=O)n3C)cnn1C [Example 212, N-(6-(3-(4-(dimethylamino)butoxy)-5-(2,2,2-trifluoroethoxy)phenoxy)-1,3-dimethyl-2-oxo-2,3-dihydro-1H-benzo[d]imidazol-5-yl)-1,5-dimethyl-1H-pyrazole-4-sulfonamide] | 8.00 to 9.00
CCCOc1cc(OCCCCCN)cc(Oc2cc3c(cc2NS(=O)(=O)c2cn(C)cn2)n(C)c(=O)n3C)c1 [Example 197, N-(6-(3-((5-aminopentyl)oxy)-5-propoxyphenoxy)-1,3-dimethyl-2-oxo-2,3-dihydro-1H-benzo[d]imidazol-5-yl)-1-methyl-1H-imidazole-4-sulfonamide] | 7.00 to 8.00
CCCOc1cc(OCCCCN2CCC2)cc(Oc2cc3c(cc2NS(=O)(=O)c2ccc(OC)c(OC)c2)n(C)c(=O)n3C)c1 [Example 251, N-(6-{3-[4-(azetidin-1-yl)butoxy]-5-propoxyphenoxy}-1,3-dimethyl-2-oxo-2,3-dihydro-1H-1,3-benzodiazol-5-yl)-3,4-dimethoxybenzene-1-sulfonamide] | 8.00 to 9.00
CCCOc1cc(Oc2cc3c(cc2NS(=O)(=O)c2cn(C)cn2)n(C)c(=O)n3C)ccc1F [Example 105, N-(6-(4-fluoro-3-propoxyphenoxy)-1,3-dimethyl-2-oxo-2,3-dihydro-1H-benzo[d]imidazol-5-yl)-1-methyl-1H-imidazole-4-sulfonamide] | 7.00 to 8.00
CC(C)COc1cc(Cl)cc(Oc2cc3c(cc2NS(=O)(=O)c2cn(C)cn2)n(C)c(=O)n3C)c1 [Example 223, N-(6-(3-chloro-5-isobutoxyphenoxy)-1,3-dimethyl-2-oxo-2,3-dihydro-1H-benzo[d]imidazol-5-yl)-1-methyl-1H-imidazole-4-sulfonamide] | 7.00 to 8.00
C=CCOc1cccc(Oc2cc3c(cc2NS(=O)(=O)c2cn(C)cn2)n(C)c(=O)n3C)c1 [Example 74, N-(6-(3-(allyloxy)phenoxy)-1,3-dimethyl-2-oxo-2,3-dihydro-1H-benzo[d]imidazol-5-yl)-1-methyl-1H-imidazole-4-sulfonamide] | 6.00 to 7.00
Cn1c(=O)n(C)c2cc(Oc3cccc(OCc4ccccc4)c3)c(NS(=O)(=O)C3CC3)cc21 [Example 12, N-(6-(3-(benzyloxy)phenoxy)-1,3-dimethyl-2-oxo-2,3-dihydro-1H-benzo[d]imidazol-5-yl)cyclopropanesulfonamide] | < 6.00
CC(COC(=O)CNC(=O)OC(C)(C)C)COc1cccc(Oc2cc3c(cc2NS(=O)(=O)c2cn(C)cn2)n(C)c(=O)n3C)c1 (stereo not shown) [Example 239, 3-(3-{[1,3-dimethyl-6-(1-methyl-1H-imidazole-4-sulfonamido)-2-oxo-2,3-dihydro-1H-1,3-benzodiazol-5-yl]oxy}phenoxy)-2-methylpropyl 2-{[(tert-butoxy)carbonyl]amino}acetate] | 6.00 to 7.00
COc1ccc(S(=O)(=O)Nc2cc3c(cc2Oc2cc(OCCCCN)cc(OCC(F)(F)F)c2)n(C)c(=O)n3C)cc1OC [Example 210, N-(6-(3-(4-aminobutoxy)-5-(2,2,2-trifluoroerthoxy)phenoxy)-1,3-dimethyl-2-oxo-2,3-dihydro-1H-benzo[d]imidazol-5-yl)-3,4-dimethoxybenzenesulfonamide] | 7.00 to 8.00
CCCOc1cc(OCCCCN)cc(Oc2cc3c(cc2NS(=O)(=O)c2cn(C)cn2)n(C)c(=O)n3C)c1 [Example 186, N-(6-(3-(4-aminobutoxy)-5-propoxyphenoxy)-1,3-dimethyl-2-oxo-2,3-dihydro-1H-benzo[d]imidazol-5-yl)-1-methyl-1H-imidazole-4-sulfonamide] | 8.00 to 9.00

Next, values leading:

pIC50 | SMILES
7.00 to 8.00 | CCCOc1cc(OCCCOC)cc(Oc2cc3c(cc2NS(=O)(=O)c2cn(C)c(C)n2)n(C)c(=O)n3C)c1 [Example 94, N-(6-(3-(3-methoxypropoxy)-5-propoxyphenoxy)-1,3-dimethyl-2-oxo-2,3-dihydro-1H-benzo[d]imidazol-5-yl)-1,2-dimethyl-1H-imidazole-4-sulfonamide]
6.00 to 7.00 | Cc1nn(C)cc1S(=O)(=O)Nc1cc2c(cc1Oc1cccc(OCc3ccccc3)c1)n(C)c(=O)n2C [Example 23, N-(6-(3-(benzyloxy)phenoxy)-1,3-dimethyl-2-oxo-2,3-dihydro-1H-benzo[d]imidazol-5-yl)-1,3-dimethyl-1H-pyrazole-4-sulfonamide]
6.00 to 7.00 | COc1ccccc1S(=O)(=O)Nc1cc2c(cc1Oc1cccc(OCc3ccccc3)c1)n(C)c(=O)n2C [Example 52, N-(6-(3-(benzyloxy)phenoxy)-1,3-dimethyl-2-oxo-2,3-dihydro-1H-benzo[d]imidazol-5-yl)-2-methoxybenzenesulfonamide]
7.00 to 8.00 | CCCOc1cccc(Oc2cc3c(cc2NS(=O)(=O)c2cccnc2)n(C)c(=O)n3C)c1 [Example 99, N-(1,3-dimethyl-2-oxo-6-(3-propoxyphenoxy)-2,3-dihydro-1H-benzo[d]imidazol-5-yl)pyridine-3-sulfonamide]
< 6.00 | Cn1cnc(S(=O)(=O)Nc2cc3c(cc2Oc2cccc(OCc4cccc(C#N)c4)c2)n(C)c(=O)n3C)c1 [Example 40, N-(6-(3-((3-cyanobenzyl)oxy)phenoxy)-1,3-dimethyl-2-oxo-2,3-dihydro-1H-benzo[d]imidazol-5-yl)-1-methyl-1H-imidazole-4-sulfonamide]
6.00 to 7.00 | Cc1nc(S(=O)(=O)Nc2cc3c(cc2Oc2cccc(OCC4CCNCC4)c2)n(C)c(=O)n3C)cn1C [Example 229, N-(1,3-dimethyl-2-oxo-6-(3-(piperidin-4-ylmethoxy)phenoxy)-2,3-dihydro-1H-benzo[d]imidazol-5-yl)-1,2-dimethyl-1H-imidazole-4-sulfonamide]
7.00 to 8.00 | CCCOc1cc(OCCCOC)cc(Oc2cc3c(cc2NS(=O)(=O)c2cccc4[nH]c(=O)c(=O)[nH]c24)n(C)c(=O)n3C)c1 [Example 176, N-(6-(3-(3-methoxypropoxy)-5-propoxyphenoxy)-1,3-dimethyl-2-oxo-2,3-dihydro-1H-benzo[d]imidazol-5-yl)-2,3-dioxo-1,2,3,4-tetrahydroquinoxaline-5-sulfonamide]
6.00 to 7.00 | C=CCOc1cccc(Oc2cc3c(cc2NS(=O)(=O)c2ccccn2)n(C)c(=O)n3C)c1 [Example 144, N-(6-(3-(allyloxy)phenoxy)-1,3-dimethyl-2-oxo-2,3-dihydro-1H-benzo[d]imidazol-5-yl)pyridine-2-sulfonamide]
6.00 to 7.00 | Cn1cnc(S(=O)(=O)Nc2cc3c(cc2Oc2cccc(OCCCCC(=O)O)c2)n(C)c(=O)n3C)c1 [Example 228]
< 6.00 | Cc1ccsc1S(=O)(=O)Nc1cc2c(cc1Oc1cccc(OCc3ccccc3)c1)n(C)c(=O)n2C [Example 24, N-(6-(3-(benzyloxy)phenoxy)-1,3-dimethyl-2-oxo-2,3-dihydro-1H-benzo[d]imidazol-5-yl)-3-methylthiophene-2-sulfonamide]
< 6.00 | Cn1cnc(S(=O)(=O)Nc2cc3c(cc2Oc2cccc(OCc4ccc(Cl)nc4)c2)n(C)c(=O)n3C)c1 [Example 3, N-(6-(3-((6-chloropyridin-3-yl)methoxy)phenoxy)-1,3-dimethyl-2-oxo-2,3-dihydro-1H-benzo[d]imidazol-5-yl)-1-methyl-1H-imidazole-4-sulfonamide]
8.00 to 9.00 | COc1ccc(S(=O)(=O)Nc2cc3c(cc2Oc2cc(OCCCCCCN(C)C)cc(OCC(F)(F)F)c2)n(C)c(=O)n3C)cc1OC [Example 205, N-(6-(3-((6-(dimethylamino)hexyl)oxy)-5-(2,2,2-trifluoroethoxy)phenoxy)-1,3-dimethyl-2-oxo-2,3-dihydro-1H-benzo[d]imidazol-5-yl)-3,4-dimethoxybenzenesulfonamide]
6.00 to 7.00 | COCC(C)(O)COc1cccc(Oc2cc3c(cc2NS(=O)(=O)c2cn(C)cn2)n(C)c(=O)n3C)c1 (stereo not shown) [Example 233, N-{6-[3-(2-hydroxy-3-methoxy-2-methylpropoxy)phenoxy]-1,3-dimethyl-2-oxo-2,3-dihydro-1H-1,3-benzodiazol-5-yl}-1-methyl-1H-imidazole-4-sulfonamide]
